Laboratory results as given in ChEMBL document CHEMBL6182874, “Discovery of phenylisoxazolidine analogs targeting receptor interacting protein kinase 1 with anti-inflammatory activity” (Eur J Med Chem, 2025).
Active and inactive are the calls of the source. No cut-off for these calls is given here.

Columns and labels:
[1] = tested on: L929; experiment: Inhibition of TNF-alpha/z-VAD-fmk-induced mitochondrial membrane potential loss in mouse L929 cells incubated for 4 hrs by JC-1 staining based assay; format: functional, cell-based; details: dose 10-250 nM
[2] = molecular target: Receptor-interacting serine/threonine-protein kinase 3 (Homo sapiens) (UniProt Q9Y572); experiment: Inhibition of RIPK3 (unknown origin)
Receptor-interacting serine/threonine-protein kinase 3 (Homo sapiens), sequence (Q9Y572 whole entry, looked up): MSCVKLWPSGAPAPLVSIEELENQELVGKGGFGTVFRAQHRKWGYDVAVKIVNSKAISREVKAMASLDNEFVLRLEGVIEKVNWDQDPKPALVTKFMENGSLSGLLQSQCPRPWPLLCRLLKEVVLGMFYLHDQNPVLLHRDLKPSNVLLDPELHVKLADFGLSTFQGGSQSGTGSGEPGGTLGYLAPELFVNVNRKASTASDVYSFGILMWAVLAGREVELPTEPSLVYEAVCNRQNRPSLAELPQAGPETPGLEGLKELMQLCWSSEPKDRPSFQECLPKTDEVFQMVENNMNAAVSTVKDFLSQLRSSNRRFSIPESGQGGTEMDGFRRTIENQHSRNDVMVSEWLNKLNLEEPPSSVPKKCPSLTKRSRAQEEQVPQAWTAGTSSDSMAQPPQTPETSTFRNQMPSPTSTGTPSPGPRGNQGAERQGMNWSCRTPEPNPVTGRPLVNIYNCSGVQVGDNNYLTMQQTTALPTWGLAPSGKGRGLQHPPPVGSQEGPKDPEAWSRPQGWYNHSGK

[3] = tested on: HT-29; experiment: Inhibition of apoptosis in TS-induced human HT-29 cells up to 5 uM preincubated with compound for 1 hr followed by TNF-alpha/Smac mimic for 24 hrs by CCK8 assay; format: functional, cell-based; details: time 25.0 hrs
[4] = AUC (0 to t) in male Sprague-Dawley rat at 1 mg/kg, iv measured up to 1440 mins by LC-MS analysis; format: ADME, organism-based; details: in vivo
[5] = MRT (0 to infinity) in male Sprague-Dawley rat at 1 mg/kg, iv measured up to 1440 mins by LC-MS analysis; format: ADME, organism-based; details: in vivo
[6] = AUC (0 to infinity) in male Sprague-Dawley rat at 1 mg/kg, iv measured up to 1440 mins by LC-MS analysis; format: ADME, organism-based; details: in vivo
[7] = tested on: L929; experiment: Inhibition of […] in TNF-alpha/z-VAD-fmk-induced mouse L929 cells assessed as increase in fluorescence intensity in lysosomes at 10 to 250 nM incubated for 4 hrs by Lyso-Tracker dye based analysis; format: functional, cell-based; details: dose 10-250 nM
[8] = tested on: Mus musculus; experiment: Protection against TNFalpha-induced SIRS C57BL/6J mouse assessed as histological change in liver at 1 to 10 mg/kg, ip pretreated with compound for 1 hr followed by TNF-alpha administration measured up to 72 hrs by H and E staining based analysis; format: functional, organism-based; details: dose 1-10 mg/kg, time 73.0 hrs
[9] = tested on: L929; experiment: Inhibition of RIPK1/RIPK3 interaction in TZ-induced mouse L929 cells assessed as dispersion of RIPK3 at 250 nM for 1 hr followed by TNF-alpha/z-VAD-fmk stimulation for 4 hrs by DAPI staining based analysis; format: cell-based; details: time 5.0 hrs
[10] = Half life in male Sprague-Dawley rat at 1 mg/kg, iv measured up to 1440 mins by LC-MS analysis; format: ADME, organism-based; details: in vivo
[11] = tested on: L929; experiment: Anti-necroptosis activity against TZ-induced mouse L929 cells assessed as reduction in PI stained-positive cells pretreated with compound for 1 hr followed by TNF-alpha/z-VAD-fmk treatment by Hoechst 33342/PI double staining based analysis; format: functional, cell-based; details: dose 10-250 nM
[12] = tested on: Mus musculus; experiment: Protection against TNFalpha-induced SIRS C57BL/6J mouse model assessed as survival rate at 1 to 10 mg/kg, ip pretreated with compound for 1 hr followed by TNF-alpha administration measured up to 72 hrs relative to control; format: functional; details: dose 1-10 mg/kg, time 73 hrs
[13] = Clearance in male Sprague-Dawley rat at 1 mg/kg, iv measured up to 1440 mins by LC-MS analysis; format: ADME, organism-based; details: in vivo

O=S(=O)(Cc1ccccc1)N1OCC[C@H]1c1ccccc1
inhibition [1]: Active
inhibition [2]: inactive
inhibition [3]: inactive
AUC(0-t) at 24 h [4]: 116 ng·h/mL
MRT inf [5]: 2.02 h
AUC(0-inf) [6]: 122 ng·h/mL
inhibition [7]: Active
Activity [8]: Active
inhibition [9]: Active
half-life [10]: 2.21 h
Activity [11]: Dose-dependent-effect
Activity [12]: 85%
clearance [13]: 146 mL/min/kg
